Experimental data from patent US8148402B2, “Isoindolinone derivatives having inhibitory activity against T-type calcium channel and method for preparation thereof” (Korea Institute of Science and Technology, priority 2008, dated 2012).

Key:
α1G T-type Ca2+ channels = biological target: T1, α1G T-type Ca2+ channels (Homo sapiens, UniProt O43497); experiment: Assay for inhibitory activity against T-type calcium channel using FDSS6000; assay type: cell-based; conditions: HEK293 cells expressing α1G and Kir2.1, KCl (70 mM) depolarization, fluo3/AM, read-out: FDSS (% Inhibition, at 10 μM)
T1 construct: expressed in transfected cells
T1 sequence (O43497 whole entry): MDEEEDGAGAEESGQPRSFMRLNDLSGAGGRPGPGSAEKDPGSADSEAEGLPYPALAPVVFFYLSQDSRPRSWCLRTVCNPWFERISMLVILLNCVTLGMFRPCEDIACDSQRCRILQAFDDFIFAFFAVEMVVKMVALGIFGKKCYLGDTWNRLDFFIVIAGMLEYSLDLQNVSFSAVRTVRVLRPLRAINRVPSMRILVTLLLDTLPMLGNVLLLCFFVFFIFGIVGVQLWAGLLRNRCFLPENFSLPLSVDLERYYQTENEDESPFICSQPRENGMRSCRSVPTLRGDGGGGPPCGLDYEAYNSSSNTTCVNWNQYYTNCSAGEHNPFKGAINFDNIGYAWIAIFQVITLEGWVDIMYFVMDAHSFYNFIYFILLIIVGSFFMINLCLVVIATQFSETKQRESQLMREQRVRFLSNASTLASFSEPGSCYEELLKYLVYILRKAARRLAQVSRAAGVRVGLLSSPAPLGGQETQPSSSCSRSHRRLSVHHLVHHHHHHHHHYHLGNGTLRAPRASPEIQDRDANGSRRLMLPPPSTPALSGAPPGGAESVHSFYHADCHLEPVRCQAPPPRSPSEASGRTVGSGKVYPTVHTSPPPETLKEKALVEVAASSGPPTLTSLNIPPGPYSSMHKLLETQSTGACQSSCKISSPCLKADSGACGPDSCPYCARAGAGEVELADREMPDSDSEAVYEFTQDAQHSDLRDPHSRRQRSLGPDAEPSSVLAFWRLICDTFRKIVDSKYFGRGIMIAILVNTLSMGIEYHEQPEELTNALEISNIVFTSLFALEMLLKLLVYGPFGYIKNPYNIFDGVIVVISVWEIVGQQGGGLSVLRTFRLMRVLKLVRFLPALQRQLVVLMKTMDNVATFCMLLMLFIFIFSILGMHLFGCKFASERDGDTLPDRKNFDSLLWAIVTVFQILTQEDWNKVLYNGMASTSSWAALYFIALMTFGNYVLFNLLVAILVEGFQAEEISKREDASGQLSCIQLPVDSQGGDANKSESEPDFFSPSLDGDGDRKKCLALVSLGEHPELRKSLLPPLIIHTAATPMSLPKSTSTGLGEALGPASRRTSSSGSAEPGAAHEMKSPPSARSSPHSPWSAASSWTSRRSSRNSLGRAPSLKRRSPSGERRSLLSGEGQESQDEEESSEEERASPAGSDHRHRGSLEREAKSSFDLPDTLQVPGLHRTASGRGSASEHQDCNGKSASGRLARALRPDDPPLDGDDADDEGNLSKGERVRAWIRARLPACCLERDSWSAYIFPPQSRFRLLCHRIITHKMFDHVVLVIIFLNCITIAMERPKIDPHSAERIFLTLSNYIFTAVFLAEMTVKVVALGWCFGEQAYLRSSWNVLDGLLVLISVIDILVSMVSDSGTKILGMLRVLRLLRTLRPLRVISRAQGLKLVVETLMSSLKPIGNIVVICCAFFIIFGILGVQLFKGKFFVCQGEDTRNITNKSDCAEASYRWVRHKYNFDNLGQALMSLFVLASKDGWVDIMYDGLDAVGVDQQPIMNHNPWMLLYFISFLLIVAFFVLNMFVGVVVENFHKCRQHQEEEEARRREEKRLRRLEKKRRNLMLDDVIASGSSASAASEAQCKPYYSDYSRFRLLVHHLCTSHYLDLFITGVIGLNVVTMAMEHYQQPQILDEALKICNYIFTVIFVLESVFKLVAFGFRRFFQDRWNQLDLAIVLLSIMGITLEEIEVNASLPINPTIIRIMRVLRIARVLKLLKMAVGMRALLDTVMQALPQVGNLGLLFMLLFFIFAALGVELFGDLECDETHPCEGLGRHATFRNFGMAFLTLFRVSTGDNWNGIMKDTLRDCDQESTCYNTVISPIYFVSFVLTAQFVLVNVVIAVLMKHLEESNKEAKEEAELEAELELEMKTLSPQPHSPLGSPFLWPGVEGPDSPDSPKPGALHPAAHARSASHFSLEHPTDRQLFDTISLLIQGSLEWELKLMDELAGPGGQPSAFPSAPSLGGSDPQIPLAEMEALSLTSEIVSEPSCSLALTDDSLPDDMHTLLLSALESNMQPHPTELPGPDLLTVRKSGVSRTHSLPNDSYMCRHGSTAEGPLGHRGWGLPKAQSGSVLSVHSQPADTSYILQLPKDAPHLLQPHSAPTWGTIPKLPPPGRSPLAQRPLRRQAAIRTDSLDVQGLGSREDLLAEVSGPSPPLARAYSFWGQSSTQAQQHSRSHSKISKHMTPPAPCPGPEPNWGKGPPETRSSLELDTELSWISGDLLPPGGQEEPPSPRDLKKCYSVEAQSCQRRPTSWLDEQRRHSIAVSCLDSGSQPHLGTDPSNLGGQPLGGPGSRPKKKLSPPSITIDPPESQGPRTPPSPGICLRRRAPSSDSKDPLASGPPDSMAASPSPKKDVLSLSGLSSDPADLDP
Protocol: Meanwhile, the novel compounds of Chemical Formula 1 in accordance with the present invention were assayed for antagonistic activity against T-type calcium channels. In this regard, an examination was made of the % inhibition of the compounds against T-type calcium channel using FDSS6000.
In the present invention, in order to search for an efficient inhibitor against T-type calcium channel, a primary assay for T-type calcium channel inhibiting activity was conducted by a high-efficient assay using FDSS6000, wherein mammal HEK293 cell lines (originated from human kidney carcinoma cells), which specifically express alG of T-type calcium channel, were used for the primary assay.
HEK293 cells which stably express both α1G and Kir2.1 subunits were grown in Dulbecoo's modified Eagle's medium supplemented with 10% (v/v) fetal bovine serum, penicillin (100 U/ml), streptomycin (100 µg/ml), geneticin (500 µg/ml), and puromycin (1 μg/ml) at 37° C. in a humid atmosphere of 5% CO2 and 95% air. Cells were seeded into 96-well black wall clear bottom plates at a density of 40,000 cells/well and were used on the next day for high-throughput screening (HTS) FDSS6000 assay. For FDSS6000 assay, cells were incubated for 60 min at room temperature with 5 µM fluo3/AM and 0.001% Pluronic F-127 in a HEPES-buffered solution composed of (in MM): 115 NaCl, 5.4 KCl, 0.8 MgCl2, 1.8 CaCl2, 20 HEPES, 13.8 glucose (pH 7.4). During fluorescence-based FDSS6000 assay, […]1G T-type Ca^2+ channels were activated using a high concentration of KCl (70 mM) in 10 mM CaCl2 contained HEPES-buffered solution, and the increase in [Ca^2+]i by KCl-induced depolarization was detected. All data were collected and analyzed using FDSS6000 and related software (Hamamatsu, Japan).

T-type calcium channel = T-type calcium channel (Homo sapiens, UniProt O43497); experiment: Measurement of ion currents through T-type calcium channel using automated patch clamp; assay type: cell-based; conditions: whole-cell automated patch clamp, HEK-293 cells expressing T-type calcium channel, 10 mM Ba2+
T-type calcium channel, sequence (O43497 whole entry): as above
Text: The selected compounds were used in a second assay for T-type calcium channel inhibiting activity using electrophysiological whole cell patch clamp method, wherein mammal HEK293 cell lines, which are originated from human kidney carcinoma cells and which specifically express alG of T-type calcium channel, were used for the second assay. As a reference drug, mibefradil which had been developed as T-type calcium channel inhibitor was used.
Stably expressed T-type calcium channels in Human Embryonic Kidney (HEK)-293 cell were provided by Korea Research Institute of Bioscience and Biotechnology (KRIBB) and hERG (human ether-a-go-go-related gene) channels induced by a Tet-expression system expressed in HEK-293 cell were purchased from Iongate (Frankfurt, Germany). In a humidified 5% CO2 incubator at 37° C., T-type calcium channel expressed cells were maintained in Dulbecco's modified Eagle's medium (DMEM) including 10% Fetal Bovine Serum (FBS), and hERG channel expressed cells were maintained in MEM with 10% FBS. For hERG channel expression, the Tet-expression system was activated by adding 1 μg/ml Doxycyclin into the hERG channel cell growth medium 20 h prior to use. Cell lines were subcultured once in three days and used for patch clamp recordings at final confluence of 50-80%. To harvest cells, cell detacher, Trypsin-EDTA (0.25×) was added into the dish and single cells were made using a pipette. Trypsin was removed by centrifugation at 1100 rpm for 3 min. Cells were automatically suspended after adding external cellular solution at room temperature.
The composition of solution for measuring T-type calcium channel and hERG channel activity is following: 140 mM NaCl, 2 mM CaCl2, 4 mM KCl, 1 mM MgCl2, 5 mM D-glucose and 10 mM HEPES (pH 7.4) for external cellular solution, 50 mM KCl, 10 mM NaCl, 60 mM KF, 2 mM MgCl2, 10 mM HEPES and 20 mM EGTA (pH 7.2) for internal cellular solution and 80 mM NaCl, 35 mM CaCl2, 3 mM KCl, 10 mM MgCl2 and 10 mM HEPES (pH 7.4) for seal enhancer. T-type calcium channel activity was recorded after adding 10 mM Ba^2+ into external solution. Each compound dissolved in 100% DMSO with a final concentration of 100 mM was diluted to 10 nM˜100 μM range in external solution with 10 mM Ba^2+ for T-type calcium channel and no Ba^2+ for hERG channel recordings.
In all experiments, auto patch clamp machine NPC©-16 Patchliner (Nanion Technologies, Germany) and whole-cell patch clamp technique were used. Channel current was recorded by EPC10 (HEKA, Germany) amplifier. Cell suspension and patch solutions were automatically divided into the chip (NPC-16 Chip, Nanion Technologies, Germany). Inward current was recorded at −20 mV depolarization potential at intervals of 10 s during 300 ms with −100 mV holding potential for T-type calcium channels, and tail current was recorded at −50 mV at intervals of 10 s during 500 ms after 20 mV depolarization during 200 ms with −80 mV holding potential for hERG channels. Compounds at each concentration were applied to the cell during 20 s. Inhibition curves and IC50 values were automatically calculated from peak currents using data analysis program, IGOR Pro (WaveMetrics, USA).

| inhibition at 10 µM (α1G T-type Ca2+ channels) [%] | IC50 (T-type calcium channel) [nM] | SMILES |
| --- | --- | --- |
| 22 | 9570 | O=C(NCCCN1CCCCC1)c1ccc2c(c1)C(=O)N(Cc1ccccc1)C2 [Compound 1, 2-benzyl-3-oxo-N-(3-(piperidin-1-yl)propyl)isoindoline-5-carboxamide] |
| 33.4 | 9770 | O=C(NCCCN1CCCCC1)c1ccc2c(c1)C(=O)N(Cc1ccc(Br)cc1)C2 [Compound 7, 2-(4-bromobenzyl)-3-oxo-N-(3-(piperidin-1-yl)propyl)isoindoline-5-carboxamide] |
| 46 | 4070 | CCC1CCCCN1CCCNC(=O)c1ccc2c(c1)C(=O)N(Cc1cccc(Br)c1)C2 (centres unmarked) [Compound 24, 2-(3-bromobenzyl)-N-(3-(2-ethylpiperidin-1-yl)propyl)-3-oxoisoindoline-5-carboxamide] |
| 60.8 | 1740 | CCCC1CCCCN1CCCNC(=O)c1ccc2c(c1)C(=O)N(Cc1cccc(Br)c1)C2 (centres unmarked) [Compound 33, 2-(3-bromobenzyl)-3-oxo-N-(3-(2-propylpiperidin-1-yl)propyl)isoindoline-5-carboxamide] |
| 53.8 | 6870 | CCCC1CCCCN1CCCNC(=O)c1ccc2c(c1)C(=O)N(Cc1ccc(I)cc1)C2 (centres unmarked) [Compound 36, 2-(4-iodobenzyl)-3-oxo-N-(3-(2-propylpiperidin-1-yl)propyl)isoindoline-5-carboxamide] |
| 56.7 | 1010 | CC(C)C1CCCCN1CCCNC(=O)c1ccc2c(c1)C(=O)N(Cc1cccc(Cl)c1)C2 (centres unmarked) [Compound 40, 2-(3-chlorobenzyl)-N-(3-(2-isopropylpiperidin-1-yl)propyl)-3-oxoisoindoline-5-carboxamide] |
| 44.4 | 4150 | CC(C)C1CCCCN1CCCNC(=O)c1ccc2c(c1)C(=O)N(Cc1cccc(Br)c1)C2 (centres unmarked) [Compound 42, 2-(3-bromobenzyl)-N-(3-(2-isopropylpiperidin-1-yl)propyl)-3-oxoisoindoline-5-carboxamide] |
| 51.7 | 5100 | CC(C)C1CCCCN1CCCNC(=O)c1ccc2c(c1)C(=O)N(Cc1ccc(Br)cc1)C2 (centres unmarked) [Compound 43, 2-(4-bromobenzyl)-N-(3-(2-isopropylpiperidin-1-yl)propyl)-3-oxoisoindoline-5-carboxamide] |
| 60.7 | 4360 | CC(C)C1CCCCN1CCCNC(=O)c1ccc2c(c1)C(=O)N(Cc1cccc(I)c1)C2 (centres unmarked) [Compound 44, 2-(3-iodobenzyl)-N-(3-(2-isopropylpiperidin-1-yl)propyl)-3-oxoisoindoline-5-carboxamide] |
| 58.9 | 1070 | CC(C)C1CCCCN1CCCNC(=O)c1ccc2c(c1)C(=O)N(Cc1ccc(I)cc1)C2 (centres unmarked) [Compound 45, 2-(4-iodobenzyl)-N-(3-(2-isopropylpiperidin-1-yl)propyl)-3-oxoisoindoline-5-carboxamide] |
| 55.3 | 2650 | CCCCC1CCCCN1CCCNC(=O)c1ccc2c(c1)C(=O)N(Cc1ccccc1)C2 (centres unmarked) [Compound 46, 2-benzyl-N-(3-(2-butylpiperidin-1-yl)propyl)-3-oxoisoindoline-5-carboxamide] |
| 49 | 2300 | CCCCC1CCCCN1CCCNC(=O)c1ccc2c(c1)C(=O)N(Cc1cccc(F)c1)C2 (centres unmarked) [Compound 47, N-(3-(2-butylpiperidin-1-yl)propyl)-2-(3-fluorobenzyl)-3-oxoisoindoline-5-carboxamide] |
| 62.1 | 1920 | CCCCC1CCCCN1CCCNC(=O)c1ccc2c(c1)C(=O)N(Cc1ccc(F)cc1)C2 (centres unmarked) [Compound 48, N-(3-(2-butylpiperidin-1-yl)propyl)-2-(4-fluorobenzyl)-3-oxoisoindoline-5-carboxamide] |
| 71.8 | 620 | CCCCC1CCCCN1CCCNC(=O)c1ccc2c(c1)C(=O)N(Cc1cccc(Cl)c1)C2 (centres unmarked) [Compound 49, N-(3-(2-butylpiperidin-1-yl)propyl)-2-(3-chlorobenzyl)-3-oxoisoindoline-5-carboxamide] |
| 55.2 | 1540 | O=C(NCCCN1CCCCC1c1ccccc1)c1ccc2c(c1)C(=O)N(Cc1cccc(Br)c1)C2 (centres unmarked) [Compound 60, 2-(3-bromobenzyl)-3-oxo-N-(3-(2-phenylpiperidin-1-yl)propyl)isoindoline-5-carboxamide] |
| 45.6 | 1070 | O=C(NCCCN1CCCCC1c1ccccc1)c1ccc2c(c1)C(=O)N(Cc1ccc(Br)cc1)C2 (centres unmarked) [Compound 61, 2-(4-bromobenzyl)-3-oxo-N-(3-(2-phenylpiperidin-1-yl)propyl)isoindoline-5-carboxamide] |
